Data set [1] has as its target T1, α-glucosidase enzyme (EC3.2.1.20) (Saccharomyces cerevisiae, UniProt P53341).
T1 construct: purchased Sigma-Aldrich
The experiment in a line: biochemical. The note with it: for inhibition at 1 µg/mL / inhibition at 10 µg/mL / inhibition at 100 µg/mL / inhibition at 1000 µg/mL: read-out: % inhibition of α-glucosidase. The text has this:
The α-glucosidase enzyme is mainly expressed in the small intestine and catalyzes the breakdown of carbohydrates into glucose units by cleaving the glucosidic bonds. α-Glucosidase blockers are the first-line drugs for the treatment of non-insulin-dependent DM by suppressing carbohydrate hydrolysis and consequently retarding glucose absorption into the bloodstream and reducing postprandial hyperglycemia. α-Glucosidase is, thus, considered to be an attractive pharmaceutical target for the treatment of […] via control of the blood glucose levels. Accordingly, there is a continuous need to develop a potential class of α-glucosidase inhibitors. Toward this aim, we explored the potency of the synthesized compounds to inhibit the activity of α-glucosidase. We examined the inhibitory activity of the synthesized compounds following the reported assay by Peytam et al.. Thus, the compounds at different concentrations (1000, 100, 10, and 1 µg/mL) were incubated with α-glucosidase and subsequently […] was added and the absorbance was monitored at 405 nm. […] To further investigate the structural aspects of 1,3-thiohydantoin scaffold, a substitution at the N1-position with the methyl-proponate group was performed. […] Nevertheless, it has adverse gastrointestinal effects including diarrhea and flatulence. Thus, the discovery of a novel class of potent antidiabetic agents is urgently demanded.
An ELISA reader was used to assess the inhibition of α-glucosidase by 1,3,5-trisubstituted-2-thioxoimidazolidin-4-ones derivatives at various doses (1000, 100, 10, and 1 µg/mL) according to Peytam et al.. […] Then, the substrate (25 µL, 4 mM) was added to the mentioned mixture and allowed to incubate at 37 °C for 20 min. Finally, the change in absorbance at 405 nm was monitored using a Cytation 3 hybrid microplate reader (BioTek, Winooski, VT, USA). […] GraphPad prism 6.0 was used to calculate the IC50 values of the investigated compounds from the nonlinear regression curve (Systat Software, Inc. Tools for Science) (https://www.graphpad.com/scientific-software/prism/ (accessed on 1 September 2022)).

The subject of data set [2] is human lung fibroblast WI-38 cell line. The experiment in a line: MTT cytotoxicity assay against WI-38 cells. In kind it is cell-based. The note with it: MTT, 48 h. Here is the method: Based on the promising dual inhibitory activity of this class of compounds, we next evaluated the cytotoxicity of compounds 5a and 7a against human lung fibroblast cell line WI-38 in order to gain insights into the toxicity of this class of compounds utilizing the MTT assay. In this regard, lung fibroblast cells were cultured and treated with compounds 5a and 7a for 48 h at different concentrations (1000, 250, 63, 16, and 4 µg/mL). After the cells were washed, they were treated with MTT solution and the absorption was assessed using an ELISA reader at 570 nm. As a pharmacological reference drug, Celecoxib, a well-known anti-inflammatory agent, was utilized.
The cytotoxicity of compounds 5a and 7a was assessed toward the human lung fibroblast WI-38 cell line (Sigma-Aldrich, St. Louis, MO, USA, product number 90020107) using MTT assay. The MTT test assay was performed in accordance with the previously stated procedure. MTT (3-(4,5-dimethylthiazol-2-yl)-2,5-diphenyl tetrazolium bromide; Sigma catalog no. M2128) was dissolved in PBS at 5 mg/mL and processed to eliminate the insoluble residues. Briefly, cells (10^5 cells/well) were treated for 48 h at 37 °C with compounds 5a and 7a at varied doses (1000, 250, 63, 16, and 4 µg/mL, DMSO stock solutions) in a 5% CO2 atmosphere. In our assessment, celecoxib, an inhibitor of cyclooxygenase 2, was employed as a standard reference drug. Following cell washing, MTT solution (180 µL/well) was applied to the cells and incubated at 37 °C for 4 h with shaking, and the absorbance was measured using an ELISA reader at 570 nm.
Background: Tetrazolium dyes change colour on reduction, which living cells bring about.

These results are taken from PMC9785777, “Antidiabetic Potential of Novel 1,3,5-Trisubstituted-2-Thioxoimidazloidin-4-One Analogues: Insights into α-Glucosidase, α-Amylase, and Antioxidant Activities” (Pharmaceuticals, 2022).

For orientation: IC50 means the concentration that gives 50% inhibition. For orientation: inhibition means how much of the control response was suppressed.

T1 sequence (P53341 whole entry): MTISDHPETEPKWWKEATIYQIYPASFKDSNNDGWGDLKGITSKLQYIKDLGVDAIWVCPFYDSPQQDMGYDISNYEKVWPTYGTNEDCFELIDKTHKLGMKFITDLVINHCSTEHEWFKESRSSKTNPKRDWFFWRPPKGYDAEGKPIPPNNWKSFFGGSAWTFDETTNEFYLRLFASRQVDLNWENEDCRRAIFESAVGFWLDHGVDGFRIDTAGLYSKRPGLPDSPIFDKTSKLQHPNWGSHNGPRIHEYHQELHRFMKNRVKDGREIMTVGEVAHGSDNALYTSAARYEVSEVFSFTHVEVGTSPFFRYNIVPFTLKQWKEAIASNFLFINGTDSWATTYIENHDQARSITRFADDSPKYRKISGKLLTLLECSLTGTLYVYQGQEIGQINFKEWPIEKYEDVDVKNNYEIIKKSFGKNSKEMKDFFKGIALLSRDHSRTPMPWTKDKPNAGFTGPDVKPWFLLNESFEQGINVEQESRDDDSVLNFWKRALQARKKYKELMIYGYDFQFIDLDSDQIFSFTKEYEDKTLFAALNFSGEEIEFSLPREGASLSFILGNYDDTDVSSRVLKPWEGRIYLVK

As to `COC(=O)CCN1C(=S)N(N=C(C)c2ccccc2O)C(=O)C1=Cc1ccccc1O` [Compound 5a, Methyl [5-(2-hydroxybenzylidene)-4-oxo-3-(2-hydroxyphenylethylidene)amino-2-thioxoimidazolidin-1-yl] propionate], in data set [1], 11.6 µM corresponded to half-maximal inhibition (IC50), the inhibition at 1 µg/mL came out at 35%, the inhibition at 10 µg/mL was found to be 58% and the inhibition at 100 µg/mL was 75%. The inhibition at 1000 µg/mL in data set [1] came out at 86%. For the same compound, the “WI-38 cytotoxicity IC50” value in data set [2] is 88.538 µg/mL.

For the compound `COC(=O)CCN1C(=S)N(N=C(C)c2ccccc2O)C(=O)C1=Cc1ccccc1OC(C)=O` [Compound 7a, Methyl [5-(2-acetoxybenzylidene)-4-oxo-3-(2-hydroxyphenylethylidene)amino-2-thioxoimidazolidin-1-yl] propionate], in data set [1], the IC50 was 38.2 µM, the inhibition at 1 µg/mL is 21.8%, the inhibition at 10 µg/mL is 48.3% and the inhibition at 100 µg/mL worked out at 66.1%. For the same compound, the inhibition at 1000 µg/mL in data set [1] came out at 82.6%.
